Laboratory results from patent publication US20180116999A1, “METHODS OF TREATING FIBROTIC DISEASES USING TETRAHYDROCANNABINOL-11-OIC ACIDS” (Corbus Pharmaceuticals, Inc., priority 2011, published 2018).
Entries after “also recorded” stand apart in the source; their conditions may differ. Read-outs that look alike come from different tables or passages of the source.

Key:
[1] = system: bleomycin-induced dermal fibrosis in DBA/2J mice; experiment: Bleomycin-induced dermal fibrosis; assay type: in vivo
Protocol: Skin fibrosis was induced in two groups of 6-week old DBA/2J mice by local injection of bleomycin. Briefly, 100 microliter of BLM dissolved in 0.9% NaCI at a concentration of 0.5 mg/ml were administered every other day, in well defined areas (1 cm^2) of the upper back. One group of BLM-challenged mice received orally AjA 1 mg/kg/day, dissolved in seed oil. Subcutaneous injections of 100 ul 0.9% NaCI were used as controls. After 21 days, animals were killed by cervical dislocation. The injected skin was removed and processed for analysis. Each treatment group consisted of eight mice. The local ethical committee approved all animal experiments. […].
Three lesional skin samples were taken from every animal of each group and 5 μm skin sections (three for each skin sample) were stained with haematoxylin and eosin. Dermal thickness was calculated at 10× microscopic magnification by measuring the distance between the dermal—epidermal junction and the dermal—subcutaneous fat junction (micrometer) in five randomly selected fields for each skin section. Results were expressed as mean±SD. Two different examiners performed the evaluation blindly.
The collagen content of lesional skin was evaluated by colourimetric quantification of hydroxyproline on three different skin biopsies (3 mm punch) taken from every animal in each group. 15 Absorbencies were measured at 560 nm in triplicate. The results were expressed as μg of hydroxyproline per biopsy (mean±SD).
Skin sections (5 μm) were processed in order to evaluate expression of a smooth muscle actin (α-SMA) (mouse monoclonal antibody) (Santa Cruz Biotechnology, Santa Cruz, Calif., USA) After deparaffinization, skin sections were incubated with 3% bovine serum albumin for 30 minutes to block nonspecific binding, followed by incubation with 3% H2O2 for 5 minutes to block endogenous peroxidase activity. A-SMA staining was performed according to the protocol of manufacturer using M.O.M kit (Vector, UK). Staining was visualized with diaminobenzidine, using a peroxidase substrate kit (Dako, Glostrup Denmark). Cell counts were performed blindly by two different operators, at 40× magnification, in five non-contiguous microscope fields of three sections from each lesional skin sample. Results are expressed as mean±SD of positive spindle-shaped fibroblastic cells per field.

SSc fibroblasts = experiment: Collagen (PIP) concentration in supernatant of SSc fibroblasts; assay type: cell-based, human; settings: for reversal of AjA inhibitory effect on PIP/collagen production by PPAR-γ antagonist: antagonist 10 μM, pre-incubation 15 minutes before AjA
[2] = system: SSc and healthy fibroblasts; experiment: Cell viability (MTT assay); assay type: cell-based, human; settings: AjA in concentrations up to 10 pM (so in the source), 24 hours, data not shown
Protocol: SSc and healthy fibroblasts were plated at a density of 100000 cells/well in 24 well plate and treated with AjA at concentrations of 0.1, 1, 5 and 10 μM for 24 hours in presence or absence of GW9662 at concentrations of 1 and 10 μM. Cell metabolic activity was measured by 3-(4,5-dimethylthiazol-2-yl)-2,5-diphenyltetrazolium bromide (MTT) assay. After removal of 100 μl of the growth medium, MTT was added at a final concentration of 3 mg/ml, and the cells were incubated at 37° C. for an additional 4 hours. Formazan crystals were dissolved in DMSO and optical density was measured at 570 nm using a spectrophotometer.

PPAR-γ = PPAR-γ expression by Western blot in SSc fibroblasts; assay type: cell-based, human; settings: AjA 5 microM and 10 microM
Protocol: (§1) SSc and healthy dermal fibroblasts were cultured in DMEM containing 2.5% of fetal calf serum (FCS) for 24 hours before the experiments. Dermal fibroblasts were incubated with AjA (JB Therapeutics, Newton, Mass., USA), dissolved in dimethyl sulfoxide at 0.1, 1, 5 and 10 microM concentrations for 24 hours. Experiments with the PPAR-γ irreversible antagonist GW9662 (Tocris Bioscience, Bristol, UK), 1 and 10 microM, were performed by incubating dermal fibroblasts for 15 minutes before AjA treatment.
After rinsing twice with PBS, cells were lysed with Ripa buffer (Santa Cruz Biotechnology, Santa Cruz, Calif., USA). Subsequently, cell lysates were incubated on ice for 30 minutes and centrifuged at 14,000 g for 20 minutes. Protein concentrations were measured using the Bradford assay (Bio-Rad, Reinach, Switzerland). […] After incubation with horseradish peroxidase (HRP)-conjugated donkey anti-goat antibodies Santa Cruz Biotechnology) at a dilution of 1:10000 for 45 minutes, signals were detected with ECL Western Blotting Detection Reagents (Amersham Bioscience, Freiburg, Germany) and exposure to x-ray film (SuperRX; Fuji, Dusseldorf, Germany). For confirmation of equal loading of proteins, the amount of alpha-tubulin was determined using mouse anti-human a-tubulin antibodies (dilution 1:1,000; Sigma) and HRP-conjugated rabbit anti-mouse antibodies (dilution 1:5000; Santa Cruz). […]

15d-PGJ2 = 15d-PGJ2 supernatant levels (ELISA) of SSc fibroblasts; assay type: cell-based, human; settings: incubation with AjA
Protocol: as §1
(§2) The supernatant was collected and stored at −20° C. prior to and after AjA±GW9662 treatment. An EIA kit (Takara Bio, Otsu, Japan) and ELISA kit (Euroclone, Lugano, Switzerland) were used to assess the procollagen type I carboxy-terminal peptide (PIP) and TGF-β and PGJ2 supernatant levels, respectively. Results are mean±SD of five separate experiments.

TGF-beta = TGF-beta supernatant levels (ELISA) of SSc fibroblasts; assay type: cell-based, human
Protocol: as §1, §2

[3] = system: bleomycin-induced lung fibrosis; experiment: Bleomycin lung fibrosis, Day 21 histology of lung; assay type: in vivo
CB1 receptor = CB1 receptor (Homo sapiens, UniProt P21554); settings: cited from earlier work
Chain of CB1 receptor (P21554 whole entry): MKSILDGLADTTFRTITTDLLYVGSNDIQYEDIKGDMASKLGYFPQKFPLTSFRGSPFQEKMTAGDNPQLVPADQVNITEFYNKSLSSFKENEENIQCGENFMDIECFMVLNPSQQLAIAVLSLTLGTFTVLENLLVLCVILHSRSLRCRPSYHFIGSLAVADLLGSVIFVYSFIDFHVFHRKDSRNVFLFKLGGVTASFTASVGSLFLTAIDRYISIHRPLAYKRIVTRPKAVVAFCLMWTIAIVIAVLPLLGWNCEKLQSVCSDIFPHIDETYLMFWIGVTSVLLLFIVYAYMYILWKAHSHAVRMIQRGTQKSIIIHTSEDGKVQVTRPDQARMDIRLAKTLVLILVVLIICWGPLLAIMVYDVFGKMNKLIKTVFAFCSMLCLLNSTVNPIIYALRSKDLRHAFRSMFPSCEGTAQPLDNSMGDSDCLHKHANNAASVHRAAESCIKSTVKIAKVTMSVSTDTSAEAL

CB2 receptor = CB2 receptor (Homo sapiens, UniProt P34972); settings: cited from earlier work
Chain of CB2 receptor (P34972 whole entry): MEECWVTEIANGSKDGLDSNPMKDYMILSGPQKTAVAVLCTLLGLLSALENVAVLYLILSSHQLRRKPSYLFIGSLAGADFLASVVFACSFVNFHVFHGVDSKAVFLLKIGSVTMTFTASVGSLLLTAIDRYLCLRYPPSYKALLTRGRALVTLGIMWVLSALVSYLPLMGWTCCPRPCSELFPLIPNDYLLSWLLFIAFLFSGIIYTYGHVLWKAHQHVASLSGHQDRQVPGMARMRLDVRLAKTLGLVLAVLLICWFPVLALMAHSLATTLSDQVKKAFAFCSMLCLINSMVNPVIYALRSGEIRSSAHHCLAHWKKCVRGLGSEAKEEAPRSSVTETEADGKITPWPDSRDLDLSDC

[4] = target: T1, peroxisome proliferated-activated receptor-γ (PPAR-γ) (Homo sapiens, UniProt P37231); settings: cited from earlier work
T1 sequence (P37231 1-505): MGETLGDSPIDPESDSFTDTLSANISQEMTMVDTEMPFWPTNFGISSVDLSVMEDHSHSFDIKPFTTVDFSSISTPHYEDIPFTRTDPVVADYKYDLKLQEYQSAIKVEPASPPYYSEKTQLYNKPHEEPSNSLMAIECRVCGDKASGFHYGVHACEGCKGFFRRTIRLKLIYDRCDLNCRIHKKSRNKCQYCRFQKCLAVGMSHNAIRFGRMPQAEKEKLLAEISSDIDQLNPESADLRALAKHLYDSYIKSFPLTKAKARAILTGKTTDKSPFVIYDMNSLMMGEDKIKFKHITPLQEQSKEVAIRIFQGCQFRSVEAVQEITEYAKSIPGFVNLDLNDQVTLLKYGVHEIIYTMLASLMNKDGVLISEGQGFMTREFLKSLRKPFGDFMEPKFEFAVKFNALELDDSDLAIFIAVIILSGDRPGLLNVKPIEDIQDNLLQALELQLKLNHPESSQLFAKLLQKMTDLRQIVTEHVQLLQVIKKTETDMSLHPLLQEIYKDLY

[5] = system: embryogenic fibroblastic 3T3 L1 cells; settings: process mediated by PPAR-γ; cited from earlier work
humans = settings: doses up to 80 mg/day, cited from earlier work
[6] = AjA 1 mg/kg/day, BLM-challenged mice
[7] = AjA 1 mg/kg/day, after treatment
[8] = AjA 10 pM (so in the source), SSc fibroblasts
[9] = listed as (6aR,10aR)-4-(1,1-dimethylheptyl)-Δ8-tetrahydro-cannabinol-9-carboxylic acid

CCCCCCC(C)(C)c1cc(O)c2c(c1)OC(C)(C)[C@@H]1CC=C(C(=O)O)C[C@@H]21 [AjA, (6aR,10aR)-3-(1,1-dimethylheptyl)-6a,7,10,10a-tetrahydro-1-hydroxy-6,6-dimethyl-6H-Dibenz o(b,d)pyran-9-carboxylic acid]
dermal thickness of lesional skin ([1]; AjA 1 mg/kg/day orally, 21 days, BLM-challenged DBA/2J mice): reduced skin thickness nearly to control levels; also recorded: dermal thickness was equal to control group
hydroxyproline content of lesional skin (collagen deposition) ([1]; AjA 1 mg/kg/day, 21 days, BLM-challenged mice): completely abrogated the collagen deposition induced by BLM; also recorded: dermal thickness was equal to control group
alpha-SMA positive cells, immunohistochemistry [1, 6]: strong downregulation of alpha-SMA positive cells
leukocyte infiltration, ECM accumulation and fat layer replacement in lesional skin (histology) [1, 6]: the subcutaneous leukocyte infiltration, the accumulation of ECM and the fat layer replacement were reduced; also recorded: strongly reduced the leukocyte infiltration
reduction of number of myofibroblasts (α-SMA positive spindle-shaped fibroblastic cells) in lesional skin [1, 6]: up to 26%
body weight, BLM/AjA group vs BLM group [1, 7]: did not differ in terms of body weight
signs of toxicity (ruffled fur, reduced activity) [1, 7]: no other signs of toxicity
supernatant PIP levels, dose dependence (SSc fibroblasts; AjA 0.1, 1, 5 and 10 μM, 24 hours, SSc fibroblasts): dose-dependently decreased the levels of PIP; also recorded: dose-dependent reduction of supernatant PIP levels
inhibition at 10 µM (SSc fibroblasts; Homo sapiens, Fibroblast, AjA 10 μM, 24 hours, SSc fibroblasts supernatant, read-out: mean PIP reduction (maximal inhibition)): ≤ 60%
metabolic activity measured by the MTT assay [2]: not affected
PPAR-γ protein expression in SSc fibroblasts (PPAR-γ): completely restored the expression of PPAR-γ
levels of 15d-PGJ2 in supernatants of SSc fibroblasts (15d-PGJ2): strongly increased the levels of 15d-PGJ2 in dose-dependent manner
duration of significant TGF-beta downregulation (TGF-beta; [8]): ≤ 24 h
time of maximum TGF-beta inhibition (TGF-beta; [8]): 2 h
supernatant TGF-beta (TGF-beta; AjA 5 and 10 microM, SSc fibroblasts): significant reduction of supernatant TGF-beta
time of maximum TGF-beta suppression (TGF-beta; SSc fibroblasts, AjA): 2 h
reduction in TGF-beta concentrations in supernatants from SSc fibroblasts (TGF-beta; incubation with AjA, dose-dependent): up to 50%
lung fibrosis (histology) ([3]; AjA 1 and 5 mg/kg qd x 21 d, bleomycin): fibrosis was significantly inhibited
parenchymal infiltration of leukocytes in lung ([3]; AjA qd x 21 d, more evident in the 5 mg/kg group): parenchymal infiltration of leukocytes was reduced
affinity for CB1 receptor (CB1 receptor): weak ligand
affinity for CB1 receptor (CB1 receptor; [9]): high affinity
affinity for CB2 receptor (CB2 receptor): weak ligand
affinity for CB2 receptor (CB2 receptor; [9]): high affinity
binding to and activation of PPAR-γ [4]: binds to and activates
differentiation of 3T3 L1 cells into adipocytes [5]: stimulates the differentiation of embryogenic fibroblastic 3T3 L1 cells into adipocytes
tolerability in humans (humans; without significant psychotropic effects): well tolerated
chronic neuropathic pain in humans (humans): can reduce chronic neuropathic pain

O=C(Nc1ccccc1)c1cc([N+](=O)[O-])ccc1Cl [GW9662, reference compound]
reversal of AjA inhibitory effect on PIP/collagen production by PPAR-γ antagonist (SSc fibroblasts; SSc fibroblasts): completely reverted
reversal of AjA inhibitory effect on PIP/collagen production by PPAR-γ antagonist (SSc fibroblasts; SSc fibroblasts, listed as GW966): completely prevented the anti-fibrotic effects of AjA
prevention of AjA inhibitory effect on collagen production by PPAR-γ antagonist, dose dependence (SSc fibroblasts; antagonist 1-10 μM pre-incubation): prevented by GW9662 in a dose-dependent manner
